Patent US20240191198A1, “CELL-CULTURED FOOD PRODUCTS AND RELATED CELLS, COMPOSITIONS, METHODS AND SYSTEMS” (BlueNalu, Inc., priority 2021, published 2024)
“Also recorded” adds a separate entry of the source.

Tests used:
Yellowtail myoblasts [1] = test: Loading of single fatty acids into yellowtail myoblasts; format: cell-based, Seriola lalandi; details: for lipid accumulation (BODIPY): individual BSA-conjugated fatty acid 25, 50, 75 or 100 μg/ml, 4% serum
Experimental: Cells were seeded onto tissue culture polystyrene at a density of 6000 cells per cm^2. Cells were cultured in the presence of control media without fatty acids or test media with individual fatty acids conjugated to BSA at 25, 50, 75, or 100 μg/ml in the presence of 4% serum. Individual fatty acids tested included saturated fatty acids, monounsaturated fatty acids, and unsaturated fatty acids as shown in Table 7 with varying carbon chain length and location of double bonds along the carbon chain. Cell morphology was observed over a six-day period by brightfield microscopy for characteristic rounding and lipid loading.

Bluefin tuna myoblasts = test: Effect of nervonic acid on fatty acid toxicity (IncuCyte, CellTiter-Glo ATP assay); format: cell-based, Thunnus orientalis
Experimental: (§1) Concentration effects of fatty acids previously shown to be toxic to aquatic fat-derived and muscle-derived cells (Example 2, Example 5, and Example 6, respectively) were evaluated, alone and in combination with nervonic acid. EPA, DHA, stearic acid, palmitic acid and nervonic acid were tested at concentrations of 0, 10, 25, and 50 ug/mL; each concentration of EPA, DHA, stearic acid and palmitic acid was also tested in combination with 10, 25 and 50 μg/ml of nervonic acid.
(§2) Cell lines were seeded per standard passaging protocols in 4×96 well plates. The cells were allowed to proliferate to approximately 80% confluence, and then transitioned to lipid loading medium containing 0/4% FBS and appropriate lipid compositions, with 6 wells/condition. Cells were monitored for 24-48 hours to evaluate any protective effect with the addition of nervonic acid.
Cells from aquatic species were placed in the IncuCyte and scanned every 6 hours up to 48 hours. Once imaging was completed, cellviability was determined by a commercially available ATP assay (CellTiter-Glo 2.0, Promega) where luminescent signal is proportionate to cell number.

dog kidney cells = test: as above; format: cell-based, Canis familiaris
Experimental: as §1, §2
(§3) Cells from terrestrial cell lines were imaged in the IncuCyte for a 1-time scan to collect the images and quantify confluence using the IncuCyte software. Following imaging, cell viability was determined by a commercially available ATP assay (CellTiter-Glo 2.0, Promega) where luminescent signal is proportionate to cell number.

rabbit skin fibroblasts = test: as above; format: cell-based, Oryctolagus cuniculus
Experimental: as §1, §2, §3

[2] = tested on: silver carp preadipocytes; test: Loading of single fatty acids into carp preadipocytes; format: cell-based, Hypophthalmichthys molitrix; details: six days; for lipid loading (brightfield, BODIPY lipid droplets): individual fatty acid 25, 50, 75 or 100 μg/ml; for toxicity (cell confluency, cell number): individual fatty acid up to 100 μg/ml
Experimental: Preadipocytes derived from freshwater carp as described in Example 1 were evaluated for the ability to uptake individual fatty acids. Cells were seeded onto tissue culture polystyrene at a density of 5-7000 cells per cm^2. Cells were cultured in the presence of control media without fatty acids or test media with individual fatty acids at 25, 50, 75, or 100 μg/ml in the absence of serum. Individual fatty acids tested included saturated fatty acids ([…]) and unsaturated fatty acids (linoleic acid). Cell morphology was observed over a six-day period by brightfield microscopy for characteristic rounding and lipid loading. As in Example 1, immunofluorescent staining of cells was performed for cell nuclei by DAPI, cell cytoskeleton by Phalloidin, and lipid droplets by BODIPY.

Yellowtail myoblasts [3] = test: Loading of chemically defined fatty acid combinations (Taguchi L-27) into yellowtail myoblasts: cell number, BODIPY, Mitotracker; format: cell-based, Seriola lalandi; details: fatty acids each at 0, 10, 25 or 50 μg/ml, 4% serum
Experimental: Myoblasts derived from yellowtail as described in Example 4 were evaluated for the ability to uptake fatty acids from a defined chemical composition. Cells were seeded onto tissue culture polystyrene at a density of 6000 cells per cm^2. Cells were cultured in the presence of control media without fatty acids or test media with fatty acids conjugated to BSA in the presence of 4% serum for two or six days. Concentrations were used for each individual fatty acid at 0, 10, 25, or 50 μg/ml. Combinations of fatty acids were determined using a design of experiments using a Taguchi L-27 design (Table 8). […] Cells were fixed, stained and imaged at day two or day six. Cells were treated with NucBlue, BODIPY and Mitotracker for 1.5 hours and live imaging was performed. Cells were then fixed in 4% PFA for 15 minutes and then blocked overnight at 4 degrees Celsius in blocking buffer that contained 5% goat serum, 1% BSA, and 0.2% fish gelatin in PBS. Cells were incubated with Phalloidin for 1 hour at room temperature in blocking buffer (Phalloidin 1:800). Plates were washed twice with PBS prior to imaging. JMP statistical software was used to quantify the effect of each fatty acid on cell number, fatty acid accumulation, and cell health.

[4] = tested on: Myoblasts or fibroblasts of cow, pork, goat, lamb, or deer; test: Loading of fatty acid mixtures and single fatty acids into mammalian cells; format: cell-based
Experimental: Myoblasts or fibroblasts of cow, pork, goat, lamb, or deer are isolated from muscle tissue by enzymatic and mechanical/or manual dissociation. Cells are expanded in 2D tissue culture or 3D cell suspension culture.
(§4) Cells are cultured in the presence of control media without fatty acids or test media with individual fatty acids at 1, 5, 10, 15, 25, 50, 75, or 100 μg/ml in the absence or presence of reduced serum. Fatty acids are conjugated to BSA or unconjugated. Individual fatty acids include saturated fatty acids, monounsaturated fatty acids, and poly-unsaturated fatty acids with varying carbon chain lengths and location of double bonds along the carbon chains.

[5] = tested on: Myoblasts or fibroblasts of chicken, duck, goose, or turkey; test: Loading of fatty acid mixtures and single fatty acids into cells from avian species; format: cell-based
Experimental: Myoblasts or fibroblasts of chicken, duck, goose, or turkey are isolated from muscle tissue by enzymatic and mechanical/or manual dissociation. Cells are expanded in 2D tissue culture or cell suspension culture.
as §4

[6] = 1-100 μg/ml, absence or presence of reduced serum
[7] = added to the growth medium as the only fatty acid
[8] = toxic concentration of 50 μg/mL DHA

Question: Which “lipid accumulation (BODIPY)” value (Yellowtail myoblasts [1]; six days) does the source give for `CCCCCCCCCCCCCCCC(=O)O` [palmitic acid] here?
Answer: Its value is “limited accumulation with only small areas of uptake even at the highest concentration of 100 μg/ml”.

Question: `CCCCCC/C=C\CCCCCCCCCC(=O)O` [vaccenic acid, (11Z)-11-octadecenoic acid] was tested. Which “lipid accumulation (BODIPY)” value (Yellowtail myoblasts [1]; six days) did it give?
Answer: Its value is “Loading at all concentrations was observed”.

Question: And the “lipid accumulation (BODIPY)” value (Yellowtail myoblasts [1]; six days, listed as Cis-vaccenic acid)?
Answer: The value was “taken up very readily”.

Question: With `CCCCCCCC/C=C\CCCCCCCC(=O)O` [oleic acid] as the compound, how does the “lipid accumulation (BODIPY)” value (Yellowtail myoblasts [1]; six days) read?
Answer: The value was “Loading at all concentrations was observed”.

Question: `CC/C=C\C/C=C\C/C=C\C/C=C\C/C=C\C/C=C\CCC(=O)O` [DHA, docosahexaenoic acid] was tested. Which “concentration above which toxicity occurs” value (Yellowtail myoblasts [1]; altered cell morphology and decreased cell number) did it give?
Answer: Its value is “above 25 μg/ml”.

Question: And the “toxicity (cell morphology, cell number)” value (Yellowtail myoblasts [1]; individual fatty acid, six days)?
Answer: Its value is “some toxicity effects at highest concentrations tested”.

Question: And the toxic concentration (Bluefin tuna myoblasts; 24-48 hours)?
Answer: The toxic concentration was 50 µg/mL.

Question: And the toxic concentration (dog kidney cells; 24-48 hours)?
Answer: The toxic concentration was 50 µg/mL.

Question: And the toxic concentration (rabbit skin fibroblasts; 24-48 hours)?
Answer: Its toxic concentration is 50 µg/mL.

Question: `CCCCCCCCCCCCCCCCCC(=O)O` [stearic acid] was tested. Which “lipid accumulation (BODIPY)” value (Yellowtail myoblasts [1]; six days) did it give?
Answer: The value was “limited accumulation with only small areas of uptake even at the highest concentration of 100 μg/ml”.

Question: With `CCCCCC/C=C\CCCCCCCC(=O)O` [palmitoleic acid] as the compound, how does the “lipid loading (brightfield, BODIPY lipid droplets)” value (from here on “lipid loading”) [2] read?
Answer: Its value is “concentration-dependent lipid accumulation; also recorded: a peak for palmitoleic acid is reached at a lower concentration”.

Question: And the “lipid loading” value ([2]; listed as Palmitoleic acid)?
Answer: Its value is “effective loading at 50 μg/ml”.

Question: And the “toxicity (cell confluency, cell number)” value [2]?
Answer: The value was “reduced cell confluency indicating potential toxicity”.

Question: What about the “toxicity (cell confluency, cell number)” value ([2]; listed as Palmitoleic acid) of the same compound?
Answer: The value was “reduced cell number; also recorded: Some concentration-related toxicity”.

Question: What about the “concentration above which toxicity occurs” value [2] of the same compound?
Answer: The value was “above 50 μg/ml”.

Question: And the “lipid accumulation (BODIPY)” value (Yellowtail myoblasts [1]; six days)?
Answer: Its value is “Loading at all concentrations was observed”.

Question: For `CCCCC/C=C\C/C=C\CCCCCCCC(=O)O` [linoleic acid], which “lipid loading” value [2] is on record?
Answer: Its value is “concentration-dependent lipid accumulation; also recorded: increased loading with concentration”.

Question: And the “lipid accumulation (BODIPY)” value (Yellowtail myoblasts [1]; six days)?
Answer: The value was “limited total loading capacity”.

Question: How did the “lipid accumulation (BODIPY)” value (Yellowtail myoblasts [1]; six days) turn out when `CC/C=C\C/C=C\C/C=C\CCCCCCCC(=O)O` [linolenic acid, α-linolenic acid] was run?
Answer: Its value is “lipid accumulation that was concentration-driven; also recorded: Loading at all concentrations was observed”.

Question: How did the “lipid accumulation (BODIPY)” value (Yellowtail myoblasts [1]; six days) turn out when `CCCCCCCCCCCCCC(=O)O` [myristic acid] was run?
Answer: Its value is “limited accumulation with only small areas of uptake even at the highest concentration of 100 μg/ml”.

Question: Which “lipid accumulation (BODIPY)” value (Yellowtail myoblasts [1]; six days) does the source give for `CCCCCCCC/C=C\CCCCCCCCCCCCCC(=O)O` [nervonic acid, (Z)-Tetracos-15-enoic acid] here?
Answer: Its value is “no lipid accumulation at any concentration tested; also recorded: does not load when used individually; also recorded: No lipid loading was observed”.

Question: What about the “cell number and health (Mitotracker), viability” value (Yellowtail myoblasts [3]) of the same compound?
Answer: Its value is “key factor in increasing lipid accumulation and cell number”.

Question: And the “lipid content / lipid accumulation (BODIPY fluorescence)” value (Yellowtail myoblasts [3]; two or six days)?
Answer: The value was “key factor in increasing lipid accumulation and cell number”.

Question: What about the “lipid uptake and lipid accumulation” value [4, 6] of the same compound?
Answer: Its value is “causes increased lipid uptake and lipid accumulation”.

Question: What about the cell proliferation [4, 7] of the same compound?
Answer: Its cell proliferation is “increases cell proliferation”.

Question: And the “lipid uptake and lipid accumulation” value [5, 6]?
Answer: The value was “causes increased lipid uptake and lipid accumulation”.

Question: And the cell proliferation [5, 7]?
Answer: The cell proliferation was “increases cell proliferation”.

Question: And the “increase in cell number (cell ATP) in the presence of nervonic acid” value (“increase in cell number (cell ATP)” below) (Bluefin tuna myoblasts; [8])?
Answer: The value was 70 ×.

Question: And the “increase in cell number (cell ATP)” value (dog kidney cells; [8])?
Answer: The value was 5.5 ×.

Question: And the “increase in cell number (cell ATP)” value (rabbit skin fibroblasts; [8])?
Answer: Its value is 42 ×.

Question: `CCCCCCCCCCCC(=O)O` [lauric acid] was tested. Which “lipid accumulation (BODIPY)” value (Yellowtail myoblasts [1]; six days) did it give?
Answer: Its value is “significant accumulation at all concentrations tested; also recorded: Highest lipid loading”.
